Legend:
Format in all cases: cell-based
[1] = target: T1, mannose 6-phosphate receptor (Homo sapiens, UniProt P11717); assay: Competitive inhibition test for mannose 6-phosphate; conditions: ML-II cell, FIG. 4
T1 construct: a mannose 6-phosphate receptor on the cell surface; endogenous in cells; host or cells: ML-II cell

normal skin fibroblast = assay: Enzyme activities in culture supernatants of normal cell + various reagents; conditions: for GALC enzyme activity in culture supernatant / total β-Hex enzyme activity in culture supernatant / α-Fuc enzyme activity in culture supernatant / α-Gal enzyme activity in culture supernatant / α-Gluc enzyme activity in culture supernatant / α-Iduro enzyme activity in culture supernatant / α-Man enzyme activity in culture supernatant / β-Gal enzyme activity in culture supernatant / β-Gluc enzyme activity in culture supernatant / β-Glucuro enzyme activity in culture supernatant / β-Hex A enzyme activity in culture supernatant: NH4Cl 20 mM, CQ 20 uM, Bafilo 20 nM; for excretion of group of lysosomal enzymes compared with no reagent added: Tables 1 and 2
Protocol: In a culture dish with a diameter of 10 cm, a normal skin fibroblast was cultured in a DMEM medium containing 10% FBS (fetal bovine serum) and a recommended amount of an antibiotic and/or an antibacterial agent [Gibco (registered trade name) Antibiotic-Antimycotic, Life Technologies] (hereinafter, referred to as “a standard culture medium”) until the cell became confluent. To the cultured normal skin fibroblast, ammonium chloride was added in such an amount that the concentration of ammonium chloride became 20 mM in the culture medium. Then, the cell was cultured. Seven days after, a culture supernatant was collected, and filtered with a 0.2 μm sterilizing filter to remove large debris and living cells. After the filtration, the activities of lysosomal enzymes contained in the supernatant were measured by a method as described later.
To confirm that the lysosomal enzyme group thus obtained contained lysosomal enzymes, the culture supernatant obtained after addition of ammonium chloride and culture was subjected to measurement of the activities of lysosomal enzymes. As controls, a culture supernatant of a normal skin fibroblast that was cultured without addition of ammonium chloride, and a culture supernatant of an ML-II patient-derived skin fibroblast (hereinafter, referred to as “an ML-II cell”) that was cultured without addition of ammonium chloride were used to measure the activities of lysosomal enzymes in the culture supernatant.
(§1) The activities of lysosomal enzymes were measured by a standard method using an artificial 4-methylumbelliferyl substrate. Briefly, a sample was incubated with the artificial substrate at 37° C. for 1 hour in an acidic phosphate or citrate buffer, and fluorescence was measured on a microplate reader at an excitation wavelength of 365 nm and an emission wavelength of 450 nm. For galactocerebrosidase, 6-hexadecanoylamino-4-methylumbelliferyl β-D-galactopyranoside (Slater and Frith Ltd.) was used as a substrate, and fluorescence was measured at an excitation wavelength of 385 nm and an emission wavelength of 450 nm. The enzyme activities were calculated as nmol/h/μL.
In a culture dish with a diameter of 10 cm, a normal skin fibroblast was cultured in a standard culture medium until the cell became confluent. […] Then, the cell was cultured. Five days after and 7 days after, a culture supernatant was collected, and filtered with a 0.2 μm sterilizing filter to remove large debris and living cells. After the filtration, the activities of lysosomal enzymes contained in the supernatant were measured by the same method as described in Example 1. As a control, a culture supernatant of a normal skin fibroblast that was cultured in a standard culture medium with no addition of any reagents was used to measure the activities of lysosomal enzymes in the culture supernatant.
In Tables 1 and 2, β-Gal means β-galactosidase, total β-Hex means total β-hexosaminidase, β-Hex A means β-hexosaminidase A, β-Gluc means β-glucosidase, α-Man means α-mannosidase, α-Fuc means α-fucosidase, α-Gluc means α-glucosidase, α-Gal means α-galactosidase, β-Glucuro means β-glucuronidase, α-L-Iduro means α-L-iduronidase, and GALC means galactocerebrosidase. SCM means a standard culture medium with no addition of any reagents. […] Bafilo means bafilomycin A1. The enzyme activity is expressed as nmol/h/μL.

COS-1 cell = assay: Enzyme activities in culture supernatant of COS-1 cell + NH4Cl
Protocol: as §1
In a culture dish with a diameter of 10 cm, a COS-1 cell was cultured in a standard culture medium until the cell became confluent. To the cultured COS-1 cell, ammonium chloride was added in such an amount that the concentration became 20 mM in the culture medium. Then, the cell was cultured. Three days after, a culture supernatant was collected, and filtered with a 0.2 μm sterilizing filter to remove large debris and living cells. After the filtration, the activities of lysosomal enzymes contained in the supernatant were measured by the same method as described in Example 1. As a control, a culture supernatant of a COS-1 cell that was cultured in a standard culture medium with no addition of ammonium chloride was used to measure the activities of lysosomal enzymes in the culture supernatant.
In Table 3, β-Gal means β-galactosidase, total β-Hex means total β-hexosaminidase, β-Hex A means β-hexosaminidase A, β-Gluc means β-glucosidase, α-Man means α-mannosidase, α-Fuc means α-fucosidase, α-Gluc means α-glucosidase, α-Gal means α-galactosidase, β-Glucuro means β-glucuronidase, α-L-Iduro means α-L-iduronidase, and GALC means galactocerebrosidase. NH4Cl(−) means a culture supernatant in the case of no addition of ammonium chloride. NH4Cl(+) means a culture supernatant in the case of addition of ammonium chloride. The enzyme activity is expressed as nmol/h/μL.

T1 sequence (P11717 41-2491): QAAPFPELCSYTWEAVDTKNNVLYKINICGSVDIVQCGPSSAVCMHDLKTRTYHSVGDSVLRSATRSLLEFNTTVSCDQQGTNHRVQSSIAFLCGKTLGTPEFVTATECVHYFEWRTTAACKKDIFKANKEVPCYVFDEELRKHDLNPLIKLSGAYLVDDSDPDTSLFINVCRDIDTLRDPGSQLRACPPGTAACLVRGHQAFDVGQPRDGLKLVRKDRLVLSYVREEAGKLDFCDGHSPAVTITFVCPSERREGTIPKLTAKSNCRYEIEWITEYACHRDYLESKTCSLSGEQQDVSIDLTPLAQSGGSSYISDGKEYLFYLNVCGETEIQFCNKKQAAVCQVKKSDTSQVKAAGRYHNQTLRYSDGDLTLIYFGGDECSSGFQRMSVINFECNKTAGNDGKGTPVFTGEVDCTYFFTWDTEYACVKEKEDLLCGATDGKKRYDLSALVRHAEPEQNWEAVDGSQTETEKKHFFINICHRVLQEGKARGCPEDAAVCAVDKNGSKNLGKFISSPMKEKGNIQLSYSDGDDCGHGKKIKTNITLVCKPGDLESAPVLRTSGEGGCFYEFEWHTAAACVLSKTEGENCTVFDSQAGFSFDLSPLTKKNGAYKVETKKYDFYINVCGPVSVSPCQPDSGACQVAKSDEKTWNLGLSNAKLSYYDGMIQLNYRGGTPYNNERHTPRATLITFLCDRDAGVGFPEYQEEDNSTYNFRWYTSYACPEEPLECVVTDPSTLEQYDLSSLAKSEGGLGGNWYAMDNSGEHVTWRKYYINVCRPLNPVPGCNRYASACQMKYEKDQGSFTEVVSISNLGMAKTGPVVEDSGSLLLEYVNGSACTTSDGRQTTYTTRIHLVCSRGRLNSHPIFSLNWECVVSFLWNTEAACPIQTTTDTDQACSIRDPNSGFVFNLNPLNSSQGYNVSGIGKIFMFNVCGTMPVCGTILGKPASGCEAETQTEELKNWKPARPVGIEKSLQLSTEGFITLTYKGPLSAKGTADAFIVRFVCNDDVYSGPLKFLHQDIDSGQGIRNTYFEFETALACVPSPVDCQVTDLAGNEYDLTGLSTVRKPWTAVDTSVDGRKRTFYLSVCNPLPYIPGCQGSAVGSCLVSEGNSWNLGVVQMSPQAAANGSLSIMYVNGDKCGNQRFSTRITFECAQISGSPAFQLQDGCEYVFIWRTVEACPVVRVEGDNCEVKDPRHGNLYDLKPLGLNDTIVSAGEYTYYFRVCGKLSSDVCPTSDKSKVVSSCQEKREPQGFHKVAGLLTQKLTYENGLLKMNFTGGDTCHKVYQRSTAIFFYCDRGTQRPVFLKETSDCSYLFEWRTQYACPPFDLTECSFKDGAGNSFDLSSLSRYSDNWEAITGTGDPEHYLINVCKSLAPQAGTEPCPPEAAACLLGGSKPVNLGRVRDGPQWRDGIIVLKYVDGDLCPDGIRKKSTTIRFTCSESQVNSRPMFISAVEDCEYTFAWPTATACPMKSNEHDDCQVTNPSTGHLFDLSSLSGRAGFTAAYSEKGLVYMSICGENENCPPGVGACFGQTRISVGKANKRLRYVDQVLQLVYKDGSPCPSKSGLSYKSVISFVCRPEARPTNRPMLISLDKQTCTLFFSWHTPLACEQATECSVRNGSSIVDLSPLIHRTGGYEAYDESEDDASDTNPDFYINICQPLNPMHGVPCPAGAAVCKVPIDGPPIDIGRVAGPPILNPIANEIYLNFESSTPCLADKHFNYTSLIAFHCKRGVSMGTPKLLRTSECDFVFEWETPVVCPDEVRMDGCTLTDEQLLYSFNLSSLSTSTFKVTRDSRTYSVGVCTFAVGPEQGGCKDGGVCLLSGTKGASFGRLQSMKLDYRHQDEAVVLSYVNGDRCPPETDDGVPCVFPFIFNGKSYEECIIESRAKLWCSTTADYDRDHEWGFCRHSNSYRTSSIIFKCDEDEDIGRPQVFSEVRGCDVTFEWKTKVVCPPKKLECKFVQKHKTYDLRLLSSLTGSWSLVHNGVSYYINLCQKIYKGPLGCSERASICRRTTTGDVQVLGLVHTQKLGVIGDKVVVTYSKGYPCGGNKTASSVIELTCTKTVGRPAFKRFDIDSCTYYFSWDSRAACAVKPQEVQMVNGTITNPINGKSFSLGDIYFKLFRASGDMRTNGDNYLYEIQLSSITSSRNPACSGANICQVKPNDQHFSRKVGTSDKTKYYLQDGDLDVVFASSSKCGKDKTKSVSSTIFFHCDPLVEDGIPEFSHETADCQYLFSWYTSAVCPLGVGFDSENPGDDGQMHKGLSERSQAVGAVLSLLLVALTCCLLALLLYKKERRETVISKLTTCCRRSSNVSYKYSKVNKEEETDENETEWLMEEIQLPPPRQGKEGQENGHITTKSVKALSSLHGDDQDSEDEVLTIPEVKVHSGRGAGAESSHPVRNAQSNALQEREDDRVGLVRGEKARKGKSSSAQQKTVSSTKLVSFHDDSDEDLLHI

| Compound | GALC enzyme activity in culture supernatant (normal skin fibroblast; Day 5, normal cell) | total β-Hex enzyme activity in culture supernatant (normal skin fibroblast; Day 5, normal cell) | α-Fuc enzyme activity in culture supernatant (normal skin fibroblast; Day 5, normal cell) | α-Gal enzyme activity in culture supernatant (normal skin fibroblast; Day 5, normal cell) | α-Gluc enzyme activity in culture supernatant (normal skin fibroblast; Day 5, normal cell) | α-Iduro enzyme activity in culture supernatant (normal skin fibroblast; Day 5, normal cell) | α-Man enzyme activity in culture supernatant (normal skin fibroblast; Day 5, normal cell) | β-Gal enzyme activity in culture supernatant (normal skin fibroblast; Day 5, normal cell) | β-Gluc enzyme activity in culture supernatant (normal skin fibroblast; Day 5, normal cell) | β-Glucuro enzyme activity in culture supernatant (normal skin fibroblast; Day 5, normal cell) | β-Hex A enzyme activity in culture supernatant (normal skin fibroblast; Day 5, normal cell) | GALC enzyme activity in culture supernatant (normal skin fibroblast; Day 7, normal cell) | total β-Hex enzyme activity in culture supernatant (normal skin fibroblast; Day 7, normal cell) | α-Fuc enzyme activity in culture supernatant (normal skin fibroblast; Day 7, normal cell) | α-Gal enzyme activity in culture supernatant (normal skin fibroblast; Day 7, normal cell) | α-Gluc enzyme activity in culture supernatant (normal skin fibroblast; Day 7, normal cell) | α-Iduro enzyme activity in culture supernatant (normal skin fibroblast; Day 7, normal cell) | α-Man enzyme activity in culture supernatant (normal skin fibroblast; Day 7, normal cell) | β-Gal enzyme activity in culture supernatant (normal skin fibroblast; Day 7, normal cell) | excretion of group of lysosomal enzymes compared with no reagent added (normal skin fibroblast; normal skin fibroblast) | other results |
| --- | --- | --- | --- | --- | --- | --- | --- | --- | --- | --- | --- | --- | --- | --- | --- | --- | --- | --- | --- | --- | --- |
| O=C[C@@H](O)[C@@H](O)[C@H](O)[C@H](O)COP(=O)(O)O [mannose 6-phosphate] |  |  |  |  |  |  |  |  |  |  |  |  |  |  |  |  |  |  |  |  | β-glucosidase in mannose 6-phosphate competitive inhibition test [1]: not to be affected; intracellular uptake of lysosomal enzymes ([1]; mannose 6-phosphate 0, 5 or 10 mM with lysosomal enzyme group sample): concentration-dependently and competitively inhibited |
| Cl.N [NH4Cl, ammonium chloride] | 0.55 nmol/h/µL | 736.1 nmol/h/µL | 6.68 nmol/h/µL | 0 nmol/h/µL | 1.92 nmol/h/µL | 3.61 nmol/h/µL | 137.1 nmol/h/µL | 8.20 nmol/h/µL | 4.53 nmol/h/µL | 3.85 nmol/h/µL | 67.0 nmol/h/µL | 0.50 nmol/h/µL | 1239.2 nmol/h/µL | 5.70 nmol/h/µL | 0.84 nmol/h/µL | 4.51 nmol/h/µL | 13.90 nmol/h/µL | 200.0 nmol/h/µL | 11.65 nmol/h/µL | excreted in larger amounts | β-Gluc enzyme activity in culture supernatant (normal skin fibroblast; Day 7, normal cell): 5.39 nmol/h/µL; β-Glucuro enzyme activity in culture supernatant (normal skin fibroblast; Day 7, normal cell): 12.78 nmol/h/µL; β-Hex A enzyme activity in culture supernatant (normal skin fibroblast; Day 7, normal cell): 157.9 nmol/h/µL; kinds of lysosomal enzymes contained in culture supernatant (normal skin fibroblast; normal skin fibroblast, ammonium chloride 20 mM, seven days, FIG. 1): at least 10 kinds; excretion of group of lysosomal enzymes compared with no addition of ammonium chloride (COS-1 cell; COS-1 cell, Table 3): excreted in larger amounts; GALC enzyme activity in culture supernatant (COS-1 cell; Day 3, COS1, NH4Cl 20 mM): 0.41 nmol/h/µL; total β-Hex enzyme activity in culture supernatant (COS-1 cell; Day 3, COS1, NH4Cl 20 mM): 799.8 nmol/h/µL; α-Fuc enzyme activity in culture supernatant (COS-1 cell; Day 3, COS1, NH4Cl 20 mM): 24.2 nmol/h/µL; α-Gal enzyme activity in culture supernatant (COS-1 cell; Day 3, COS1, NH4Cl 20 mM): 10.60 nmol/h/µL; α-Gluc enzyme activity in culture supernatant (COS-1 cell; Day 3, COS1, NH4Cl 20 mM): 7.96 nmol/h/µL; α-Iduro enzyme activity in culture supernatant (COS-1 cell; Day 3, COS1, NH4Cl 20 mM): 13.60 nmol/h/µL; α-Man enzyme activity in culture supernatant (COS-1 cell; Day 3, COS1, NH4Cl 20 mM): 178.0 nmol/h/µL; β-Gal enzyme activity in culture supernatant (COS-1 cell; Day 3, COS1, NH4Cl 20 mM): 25.26 nmol/h/µL; β-Gluc enzyme activity in culture supernatant (COS-1 cell; Day 3, COS1, NH4Cl 20 mM): 6.64 nmol/h/µL; β-Glucuro enzyme activity in culture supernatant (COS-1 cell; Day 3, COS1, NH4Cl 20 mM): 21.37 nmol/h/µL; β-Hex A enzyme activity in culture supernatant (COS-1 cell; Day 3, COS1, NH4Cl 20 mM): 85.9 nmol/h/µL |
| CCN(CC)CCCC(C)Nc1ccnc2cc(Cl)ccc12 (centres unmarked) [CQ, chloroquine] |  |  |  |  |  |  |  |  |  |  |  |  |  |  |  |  |  |  |  | excreted in larger amounts |  |
| CO/C1=C\C(C)=C\[C@@H](C)[C@@H](O)[C@@H](C)C/C(C)=C/C=C/[C@H](OC)[C@@H]([C@@H](C)[C@@H](O)[C@H](C)[C@@]2(O)C[C@@H](O)[C@H](C)[C@@H](C(C)C)O2)OC1=O [Bafilo, bafilomycin A1] | 0.64 nmol/h/µL | 437.7 nmol/h/µL | 3.49 nmol/h/µL | 0 nmol/h/µL | 1.13 nmol/h/µL | 0.57 nmol/h/µL | 100.4 nmol/h/µL | 4.65 nmol/h/µL | 3.97 nmol/h/µL | 4.07 nmol/h/µL | 18.9 nmol/h/µL | 0.69 nmol/h/µL | 300.5 nmol/h/µL | 3.97 nmol/h/µL | 0.91 nmol/h/µL | 2.44 nmol/h/µL | 0.64 nmol/h/µL | 123.9 nmol/h/µL | 2.93 nmol/h/µL | excreted in larger amounts | β-Gluc enzyme activity in culture supernatant (normal skin fibroblast; Day 7, normal cell): 8.65 nmol/h/µL; β-Glucuro enzyme activity in culture supernatant (normal skin fibroblast; Day 7, normal cell): 8.03 nmol/h/µL; β-Hex A enzyme activity in culture supernatant (normal skin fibroblast; Day 7, normal cell): 22.5 nmol/h/µL |
